One assay concerns common ragweed. Briefly: Test F preemergence. The assay is classed as in vivo, Ambrosia elation. An excerpt:
(§1) Seeds of plant species selected from corn (Zea mays), soybean (Glycine max), velvetleaf (Abutilon theophrasti), lambsquarters (Chenopodium album), wild poinsettia (Euphorbia heterophylla), pigweed, palmer (palmer pigweed, Amaranthus palmeri), common waterhemp (Amaranthus rudis), surinam grass (Brachiaria decumbens), large crabgrass (Digitaria sanguinalis), crabgrass, Brazil (Brazilian crabgrass, Digitaria horizontalis), fall panicum (Panicum dichotomiflorum), giant foxtail (Setaria faberii), green foxtail (Setaria viridis), goosegrass (Eleusine indica), johnsongrass (Sorghum halepense), common ragweed (Ambrosia elation), barnyardgrass (Echinochloa crus-galli), southern sandbur (Cenchrus echinatus), arrowleaf sida (Sida rhombifolia), Italian ryegrass (Lolium multiflorum), dayflower, VA (Virginia (VA) dayflower, Commelina virginica), field bindweed (Convolvulus arvensis), cocklebur (common cocklebur, Xanthium strumarium), morningglory (Ipomoea coccinea), nightshade (eastern black nightshade, Solanum ptycanthum), kochia (Kochia scoparia), yellow nutsedge (Cyperus esculentus), and hairy beggarticks (Bidens pilosa), were planted into a silt loam soil and treated preemergence with test chemicals formulated in a non-phytotoxic solvent mixture which included a surfactant.
(§2) At the same time, plants from these crop and weed species and also horseweed (Canada horseweed, Conyza canadensis), smartweed (ladysthumb smartweed, Polygonum persicaria), waterhemp_RES1, (ALS & Triazine resistant common waterhemp, Amaranthus rudis), and waterhemp_RES2, (ALS & HPPD resistant common waterhemp, Amaranthus rudis) were treated with postemergence applications of test chemicals formulated in the same manner. Plants ranged in height from 2 to 18 cm for postemergence treatments (1- to 4-leaf stage). Treated plants and controls were maintained in a greenhouse for 14 to 21 days, after which time all species were compared to controls and visually evaluated. Plant response ratings, summarized in Table F, are based on a scale of 0 to 100 where 0 is no effect and 100 is complete control. A dash (-) response means no test result.

Another assay has as its system yellow nutsedge. Briefly: Test F preemergence. Type of assay: in vivo, Cyperus esculentus.
Description: as §1, §2

A further assay concerns barnyardgrass. Briefly: Test F preemergence. The assay is classed as in vivo, Echinochloa crus-galli.
Description: as §1, §2

The subject of another assay is hairy beggarticks. The assay is described as follows: Test F preemergence. Type of assay: in vivo, Bidens pilosa.
Description: as §1, §2

A further assay concerns kochia. The assay is described as follows: Test F preemergence. Type of assay: in vivo, Kochia scoparia.
Description: as §1, §2

For another assay, the system named is canarygrass. The assay is described as follows: Test C postemergence. The assay is classed as in vivo, Phalaris minor. To be noted: for Canarygrass plant response rating: Postemergence, 31 g ai/ha, scale 0 to 100; for Plant response rating, Canarygrass: postemergence. An excerpt:
(§3) Seeds of plant species selected from blackgrass (Alopecurus myosuroides), ryegrass, Italian (Italian ryegrass, Lolium multiflorum), wheat (winter wheat, Triticum aestivum), galium (catchweed bedstraw, Galium aparine), corn (Zea mays), crabgrass, large (large crabgrass, Digitaria sanguinalis), foxtail, giant (giant foxtail, Setaria faberii), johnsongrass (Sorghum halepense), lambsquarters (Chenopodium album), morningglory (Ipomoea coccinea), nutsedge, yellow (yellow nutsedge, Cyperus esculentus), pigweed (redroot pigweed, Amaranthus retroflexus), ragweed (common ragweed, Ambrosia elation), soybean (Glycine max), barnyardgrass (Echinochloa crus-galli), oilseed rape (Brassica napus), waterhemp (common waterhemp, Amaranthus rudis), oat, wild (wild oat, Avena fatua), kochia (Kochia scoparia), Surinam grass (Brachiaria decumbens), foxtail, green (green foxtail, Setaria viridis), goosegrass (Eleusine indica), bromegrass, downy (downy bromegrass, Bromus tectorum), nightshade (eastern black nightshade, Solanum ptycanthum), cocklebur (common cocklebur, Xanthium strumarium), cupgrass, woolly (woolly cupgrass, Eriochloa villosa), bermudagrass (Cynodon dactylon), sunflower, (common oilseed sunflower, Helianthus annuus), Russian thistle (Salsola kali), and velvetleaf (Abutilon theophrasti) were planted into a blend of loam soil and sand and treated preemergence with test chemicals formulated in a non-phytotoxic solvent mixture which included a surfactant.
(§4) At the same time, plants selected from these crop and weed species and also chickweed (common chickweed, Stellaria media), canarygrass (littleseed canarygrass, Phalaris minor), and deadnettle (henbit deadnettle, Lamium amplexicaule), were planted in pots containing Redi-Earth® planting medium (Scotts Company, 14111 Scottslawn Road, Marysville, Ohio 43041) comprising spaghnum peat moss, vermiculite, wetting agent and starter nutrients and treated with postemergence applications of test chemicals formulated in the same manner. Plants ranged in height from 2 to 18 cm (1- to 4-leaf stage) for postemergence treatments. Treated plants and controls were maintained in a greenhouse for 13 to 15 days, after which time all species were compared to controls and visually evaluated. Plant response ratings, summarized in Table C, are based on a scale of 0 to 100 where 0 is no effect and 100 is complete control. A dash (-) response means no test result.

A further assay relates to bermudagrass. Briefly: Test C postemergence. The assay is classed as in vivo, Cynodon dactylon. To be noted: for Bermudagrass plant response rating: Postemergence, 31 g ai/ha, scale 0 to 100; for Plant response rating, Bermudagrass: postemergence.
Description: as §3, §4

A further assay has as its system cupgrass, woolly. The assay is described as follows: Test C postemergence. The assay is classed as in vivo, Eriochloa villosa. To be noted: for Cupgrass, Woolly plant response rating: Postemergence, 31 g ai/ha, scale 0 to 100; for Plant response rating, Cupgrass, Woolly: postemergence.
Description: as §3, §4

A further assay deals with goosegrass. The assay is described as follows: Test C postemergence. Type of assay: in vivo, Eleusine indica. The note with it: for Goosegrass plant response rating: Postemergence, 31 g ai/ha, scale 0 to 100; for Plant response rating, Goosegrass: postemergence.
Description: as §3, §4

Where [1] appears, read: Preemergence, 31 g ai/ha, scale 0 to 100.
Setting [2] is: Preemergence, 62 g ai/ha, scale 0 to 100.
The mark [3] stands for this setting: Preemergence, 125 g ai/ha, scale 0 to 100.
Where [4] appears, read: preemergence, 8 g ai/ha, scale 0 to 100, 100 is complete control.
[5] abbreviates: preemergence, 16 g ai/ha, scale 0 to 100, 100 is complete control.
Setting [6] is: Preemergence, 250 g ai/ha, scale 0 to 100.
Setting [7] is: 250 g ai/ha, scale 0 to 100 (0 no effect, 100 complete control).
Setting [8] is: 62 g ai/ha, scale 0 to 100, 0 no effect, 100 complete control.
Setting [9] is: 125 g ai/ha, scale 0 to 100, 0 no effect, 100 complete control.
Where [10] appears, read: Preemergence, 16 g ai/ha, scale 0 to 100.

Results on 5 compounds are retold here after patent US20150105252A1, “SUBSTITUTED PYRAZOLES AS HERBICIDES” (E I DU PONT DE NEMOURS AND COMPANY, priority 2013, published 2015).

Take `CCc1cc(-c2ccc(C(F)(F)F)cc2)nn1Cc1ccnc(C(F)(F)F)c1` [Compound 110]: the “Plant response rating, Common Ragweed” value turned out to be 25 in the assay on common ragweed (setting [1]); 80 in the assay with common ragweed (setting [2]); 90 in the assay on common ragweed (setting [3]); 0 with common ragweed (setting [4]); 0 in the assay with common ragweed (setting [5]). In addition, the “Plant response rating, Yellow Nutsedge” value in the assay with yellow nutsedge (setting [1]), with yellow nutsedge (setting [2]), in the assay with yellow nutsedge (setting [3]), in the assay on yellow nutsedge (setting [4]) and in the assay with yellow nutsedge (setting [5]) was 0 in each case. Further, the “Plant response rating, Barnyardgrass” value is given as 0 in the assay on barnyardgrass (setting [1]); 10 in the assay on barnyardgrass (setting [2]); 35 in the assay with barnyardgrass (setting [3]); 0 in the assay with barnyardgrass (setting [4]); 0 in the assay on barnyardgrass (setting [5]). Further, the “Plant response rating, Hairy Beggarticks” value with hairy beggarticks (setting [1]) is recorded as 35; in the assay with hairy beggarticks (setting [2]) it was 30; in the assay with hairy beggarticks (setting [3]), 50; in the assay on hairy beggarticks (setting [4]), 50; in the assay on hairy beggarticks (setting [5]), 35. For the same compound, the “Plant response rating, Kochia” value in the assay on kochia (setting [1]) was 70; with kochia (setting [2]) it was 80; with kochia (setting [3]), 90; in the assay on kochia (setting [4]), 20; in the assay on kochia (setting [5]) it was 25.

`CCc1cc(C(=O)NCC(F)(F)F)nn1Cc1ccnc(Br)c1` [Compound 224]: the “Plant response rating, Common Ragweed” value in the assay with common ragweed (setting [2]) is given as 0; with common ragweed (setting [3]) it was 0; with common ragweed (setting [6]), 60. Besides, the “Plant response rating, Yellow Nutsedge” value is 0 in the assay on yellow nutsedge (setting [2]), 35 in the assay with yellow nutsedge (setting [3]) and 35 in the assay with yellow nutsedge (setting [6]). Moreover, the “Plant response rating, Barnyardgrass” value in the assay with barnyardgrass (setting [2]) is given as 0; in the assay with barnyardgrass (setting [3]) it was 40; with barnyardgrass (setting [6]), 70. The “Plant response rating, Hairy Beggarticks” value is 0 with hairy beggarticks (setting [2]), 0 in the assay on hairy beggarticks (setting [3]) and 10 in the assay with hairy beggarticks (setting [6]). The results for the “Plant response rating, Kochia” value in the assay with kochia (setting [2]), in the assay with kochia (setting [3]) and with kochia (setting [6]) were 90, 100 and 100, respectively.

As for `CCCNC(=O)c1cc(CC)n(Cc2cccc(OC(F)(F)F)c2)n1` [Compound 27], the “Canarygrass plant response rating” value in the assay on canarygrass is reported as 5. Besides, the “Plant response rating, Canarygrass” value is recorded as 10 in the assay on canarygrass (setting [7]), 5 with canarygrass (setting [8]) and 10 with canarygrass (setting [9]). For the same compound, the “Bermudagrass plant response rating” value in the assay with bermudagrass stood at 0. Further, the “Plant response rating, Bermudagrass” value with bermudagrass (setting [7]) was 25; in the assay on bermudagrass (setting [8]) it was 5; with bermudagrass (setting [9]), 5. Further, in the assay with cupgrass, woolly, the “Cupgrass, Woolly plant response rating” value was 0. The “Plant response rating, Cupgrass, Woolly” value was found to be 20 with cupgrass, woolly (setting [7]); 5 in the assay with cupgrass, woolly (setting [8]); 10 with cupgrass, woolly (setting [9]). Also, the “Goosegrass plant response rating” value in the assay with goosegrass is 0. Also, the “Plant response rating, Goosegrass” value in the assay on goosegrass (setting [7]) was determined as 10; with goosegrass (setting [8]), 0; in the assay on goosegrass (setting [9]), 0.

As for `CCc1cc(C(=O)NCC(F)(F)F)nn1Cc1cccc(OC(F)(F)F)c1` [Compound 20], in the assay with canarygrass, the “Canarygrass plant response rating” value was 5. The “Plant response rating, Canarygrass” value with canarygrass (setting [7]) came out at 15; in the assay with canarygrass (setting [8]) it was 10; with canarygrass (setting [9]), 15. Moreover, the “Bermudagrass plant response rating” value in the assay with bermudagrass is recorded as 5. In addition, the “Plant response rating, Bermudagrass” value was 45 in the assay on bermudagrass (setting [7]), 5 with bermudagrass (setting [8]) and 15 in the assay on bermudagrass (setting [9]). For the same compound, the “Cupgrass, Woolly plant response rating” value in the assay on cupgrass, woolly was 5. For the same compound, the “Plant response rating, Cupgrass, Woolly” value with cupgrass, woolly (setting [7]) was found to be 15; with cupgrass, woolly (setting [8]), 10; with cupgrass, woolly (setting [9]), 15. Besides, the “Goosegrass plant response rating” value with goosegrass came out at 0. For the same compound, the “Plant response rating, Goosegrass” value was found to be 15 in the assay on goosegrass (setting [7]), 5 in the assay with goosegrass (setting [8]) and 5 in the assay on goosegrass (setting [9]).

With `CCCc1cc(C(=O)NC(C)C)nn1Cc1cc(C(F)(F)F)nn1C` [Compound 201], the “Plant response rating, Common Ragweed” value came to 0 in the assay with common ragweed (setting [10]); 0 in the assay with common ragweed (setting [2]); 35 with common ragweed (setting [3]); 65 with common ragweed (setting [6]); 0 in the assay on common ragweed (setting [5]). Moreover, the “Plant response rating, Yellow Nutsedge” value in the assay with yellow nutsedge (setting [2]) is given as 0; in the assay with yellow nutsedge (setting [3]), 0; in the assay on yellow nutsedge (setting [6]), 25; with yellow nutsedge (setting [5]), 0. For the same compound, the “Plant response rating, Barnyardgrass” value was determined as 0 in the assay with barnyardgrass (setting [10]); 10 in the assay on barnyardgrass (setting [2]); 85 with barnyardgrass (setting [3]); 95 in the assay on barnyardgrass (setting [6]); 0 in the assay with barnyardgrass (setting [5]). The “Plant response rating, Hairy Beggarticks” value with hairy beggarticks (setting [2]) worked out at 20; in the assay on hairy beggarticks (setting [3]) it was 35; in the assay with hairy beggarticks (setting [6]), 40; in the assay with hairy beggarticks (setting [5]), 0. The “Plant response rating, Kochia” value turned out to be 90 in the assay on kochia (setting [2]), 100 in the assay with kochia (setting [3]), 100 in the assay on kochia (setting [6]) and 0 with kochia (setting [5]).
